Assay results reported in patent US6858591B2, “Antibiotic AA 896 analogs” (Wyeth Holdings Corporation, priority 2001, dated 2005).
In brackets after ≈: the same amount, converted by molar mass. Where two headings read alike, the source gives them in different places.

Columns and labels:
Test in all cases: In vitro MIC, broth dilution
Assay type in all cases: cell-based
[1] = system: K. pneumoniae GC 4534; details: K. pneumoniae GC 4534
[2] = system: E. coli GC 3226; details: E. coli GC 3226
[3] = system: E. cloacae GC 3783; details: E. cloacae GC 3783
[4] = system: E. coli GC 2203; details: E. coli GC 2203
[5] = system: C. albicans GC 3066; details: C. albicans GC 3066
[6] = system: E. coli GC 4559; details: E. coli GC 4559
[7] = system: CNS GC 4547
Method in brief: (§1)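 MIC read as the lowest antibiotic level preventing growth after 18 hours at 35° C., ambient air. Tested by NCCLS broth dilution in Mueller-Hinton II across 64-0.06 μg/ml with 5×10^5 CFU/ml inoculum.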

[8] = system: S. aureus GC 1131; details: S. aureus GC 1131
Method in brief: as §1

[9] = system: E. faecalis GC 4555; details: E. faecalis GC 4555
Method in brief: as §1

[10] = system: CNS GC 4538
Method in brief: as §1

[11] = system: S. aureus GC 4536; details: S. aureus GC 4536
Method in brief: as §1

[12] = system: S. aureus GC 2216; details: S. aureus GC 2216
Method in brief: as §1

[13] = system: E. faecalis GC 842; details: E. faecalis GC 842
Method in brief: as §1

[14] = system: E. faecalis GC 2242; details: E. faecalis GC 2242
Method in brief: as §1

[15] = system: CNS GC 4537
Method in brief: as §1

[16] = system: S. marcescens GC 4077; details: S. marcescens GC 4077
[17] = system: P. aeruginosa GC 2214; details: P. aeruginosa GC 2214
[18] = system: M. morganii GC 4531; details: M. morganii GC 4531
[19] = system: P. aeruginosa GC 4532; details: P. aeruginosa GC 4532
[20] = system: E. coli GC 4560; details: E. coli GC 4560
[21] = Klebsiella pneumoniae, GC4534, read-out: MIC
[22] = Escherichia coli, GC3226, read-out: MIC
[23] = Enterobacter cloacae, GC3783, read-out: MIC
[24] = Escherichia coli, GC2203, read-out: MIC
[25] = Candida albicans, GC3066, read-out: MIC
[26] = Escherichia coli, GC4559, read-out: MIC
[27] = Staphylococcus aureus, GC1131, read-out: MIC
[28] = Enterococcus faecalis, GC4555, read-out: MIC
[29] = Staphylococcus aureus, GC4536, read-out: MIC
[30] = Staphylococcus aureus, GC2216, read-out: MIC
[31] = Enterococcus faecalis, GC842, read-out: MIC
[32] = Enterococcus faecalis, GC2242, read-out: MIC
[33] = Serratia marcescens, GC4077, read-out: MIC
[34] = Pseudomonas aeruginosa, GC2214, read-out: MIC
[35] = Morganella morganii, GC4531, read-out: MIC
[36] = Pseudomonas aeruginosa, GC4532, read-out: MIC
[37] = Escherichia coli, GC4560, read-out: MIC

| SMILES | MIC [1, 21] [µg/mL] | MIC [2, 22] [µg/mL] | MIC [3, 23] [µg/mL] | MIC [4, 24] [µg/mL] | MIC [5, 25] [µg/mL] | MIC [6, 26] [µg/mL] | MIC ([7]; CNS GC 4547, read-out: MIC) [µg/mL] | MIC [8, 27] [µg/mL] | MIC [9, 28] [µg/mL] | MIC ([10]; CNS GC 4538, read-out: MIC) [µg/mL] | MIC [11, 29] [µg/mL] | MIC [12, 30] [µg/mL] | MIC [13, 31] [µg/mL] | MIC [14, 32] [µg/mL] | MIC ([15]; CNS GC 4537, read-out: MIC) [µg/mL] | MIC [16, 33] [µg/mL] | MIC [17, 34] [µg/mL] | MIC [18, 35] [µg/mL] | MIC [19, 36] [µg/mL] | MIC [20, 37] [µg/mL] | also measured |
| --- | --- | --- | --- | --- | --- | --- | --- | --- | --- | --- | --- | --- | --- | --- | --- | --- | --- | --- | --- | --- | --- |
| CCOC(=O)C(NCCCNC(=O)[C@@H](N)CC(C)C)[C@@H](OC(C)=O)[C@H]1O[C@H](n2ccc(=O)[nH]c2=O)[C@H](OC(C)=O)[C@@H]1OC(C)=O (stereo partly drawn) [Example 39, Ethyl (3R)-3-(acetyloxy)-2-[(3-{[(2S)-2-amino-4-methylpentanoyl]amino}propyl)amino]-3-[(2R,3R,4R,5S)-3,4-bis(acetyloxy)-5-(2,4-dioxo-3,4-dihydro-1(2H)-pyrimidinyl)tetrahydro-2-furanyl]propanoate] | > 128 | > 128 | > 128 | > 128 | 128 (≈ 199 µM) | > 128 | > 128 | > 128 | > 128 | > 128 | > 128 | > 128 | > 128 | 128 (≈ 199 µM) | > 128 | 128 (≈ 199 µM) | 128 (≈ 199 µM) | 128 (≈ 199 µM) | 128 (≈ 199 µM) | > 128 | – |
| CCOC(=O)C(NCCCNC(=O)[C@@H](N)CC(C)C)[C@@H](OC(C)=O)[C@H]1O[C@@H](n2ccc(=O)[nH]c2=O)[C@H](OC(C)=O)[C@@H]1OC(C)=O (stereo partly drawn) [Example 40, Ethyl (3R)-3-(acetyloxy)-2-[(3-{[(2S)-2-amino-4-methylpentanoyl]amino}propyl)amino]-3-[(2R,3R,4R,5R)-3,4-bis(acetyloxy)-5-(2,4-dioxo-3,4-dihydro-1(2H)-pyrimidinyl)tetrahydro-2-furanyl]propanoate] | > 128 | > 128 | > 128 | > 128 | > 128 | > 128 | > 128 | > 128 | > 128 | > 128 | > 128 | > 128 | > 128 | 128 (≈ 199 µM) | > 128 | > 128 | 128 (≈ 199 µM) | > 128 | 128 (≈ 199 µM) | > 128 | – |
| CCOC(=O)C(NCCCNC(=O)[C@H](CC(C)C)NC(=O)[C@H](CCCNC(=N)N[N+](=O)O)NC(=O)N[C@H](C(=O)OCc1ccccc1)C(C)C)C(OC(C)=O)[C@H]1O[C@H](n2ccc(=O)[nH]c2=O)[C@H](OC(C)=O)[C@@H]1OC(C)=O (stereo partly drawn) [Example 41, 19-Benzyl 5-ethyl (4R,12S,15S,19S)-4-[(2R,3R,4R,5S)-3,4-bis(acetyloxy)-5-(2,4-dioxo-3,4-dihydro-1(2H)-pyrimidinyl)tetrahydro-2-furanyl]-15-(3-{[(2,2-dioxido-2lambda˜1˜-diazanyl)(imino)methyl]amino}propyl)-12-isobutyl-20-methyl-2,11,14,17-tetraoxo-3-oxa-6,10,13,16,18-pentaazahenicosane-5,19-dicarboxylate] | > 128 | > 128 | > 128 | > 128 | 128 | > 128 | – | > 128 | > 128 | – | > 128 | > 128 | > 128 | 128 | – | > 128 | 128 | > 128 | 128 | > 128 | MIC [7]: > 128 µg/mL; MIC [10]: > 128 µg/mL; MIC [15]: > 128 µg/mL |
| CCOC(=O)C(NCCCNC(=O)[C@H](CC(C)C)NC(=O)[C@H](CCCNC(=N)N[N+](=O)[O-])NC(=O)N[C@H](C(=O)OCc1ccccc1)C(C)C)[C@@H](OC(C)=O)[C@H]1O[C@@H](n2ccc(=O)[nH]c2=O)[C@H](OC(C)=O)[C@@H]1OC(C)=O (stereo partly drawn) [Example 42, 1-Benzyl 17-ethyl (2S,6S,9S)-16-{(R)-(acetyloxy)[(2R,3R,4R,5R)-3,4-bis(acetyloxy)-5-(2,4-dioxo-3,4-dihydro-1(2H)-pyrimidinyl)tetrahydro-2-furanyl]methyl}-6-(3-{[(2,2-dioxido-2lambda˜1˜-diazanyl)(imino)methyl]amino}propyl)-9-isobutyl-2-isopropyl-4,7,10-trioxo-3,5,8,11,15-pentaazaheptadecane-1,17-dioate] | – | – | – | – | – | – | – | – | – | – | – | – | – | – | – | – | – | – | – | – | MIC [1]: 128 µg/mL (≈ 119 µM); MIC [2]: 128 µg/mL (≈ 119 µM); MIC [3]: 128 µg/mL (≈ 119 µM); MIC [4]: >128 µg/mL; MIC [5]: 128 µg/mL (≈ 119 µM); MIC [6]: >128 µg/mL; MIC ([7]; CNS GC 4547): 128 µg/mL (≈ 119 µM); MIC [8]: >128 µg/mL; MIC [9]: 128 µg/mL (≈ 119 µM); MIC ([10]; CNS GC 4538): >128 µg/mL; MIC [11]: >128 µg/mL; MIC [12]: >128 µg/mL; MIC [13]: 128 µg/mL (≈ 119 µM); MIC [14]: 64 µg/mL (≈ 59.5 µM); MIC ([15]; CNS GC 4537): >128 µg/mL; MIC [16]: 128 µg/mL (≈ 119 µM); MIC [17]: 128 µg/mL (≈ 119 µM); MIC [18]: 128 µg/mL (≈ 119 µM); MIC [19]: 128 µg/mL (≈ 119 µM); MIC [20]: 128 µg/mL (≈ 119 µM) |
| CCOC(=O)C(NCCCNC(=O)[C@@H](NC(=O)[C@H](CCCNC(=N)N)NC(=O)N[C@H](C(=O)O)C(C)C)[C@@H](O)C(C)C)[C@@H](O)[C@H]1O[C@@H](n2ccc(=O)[nH]c2=O)[C@H](OC(C)=O)[C@@H]1OC(C)=O (stereo partly drawn) [Example 43, (2S,6S,9S)-6-(3-{[Amino(imino)methyl]amino}propyl)-16-[(R)-[(2R,3R,4R,5R)-3,4-bis(acetyloxy)-5-(2,4-dioxo-3,4-dihydro-1(2H)-pyrimidinyl)tetrahydro-2-furanyl](hydroxy)methyl]-9-[(1S)-1-hydroxy-2-methylpropyl]-2-isopropyl-4,7,10,17-tetraoxo-18-oxa-3,5,8,11,15-pentaazaicosan-1-oic acid] | > 128 | > 128 | > 128 | > 128 | 128 (≈ 140 µM) | > 128 | > 128 | > 128 | > 128 | > 128 | > 128 | > 128 | > 128 | > 128 | > 128 | > 128 | 128 (≈ 140 µM) | > 128 | 128 (≈ 140 µM) | > 128 | – |
| COc1ccc(Cn2c(=O)ccn([C@@H]3OC([C@H](O)[C@H](NCCCNC(=O)[C@@H](NC(=O)OCc4ccccc4)[C@H](C)O)C(=O)OC(C)(C)C)[C@@H](O)[C@H]3O)c2=O)cc1 (stereo partly drawn) [Example 44, tert-Butyl (5S,12S)-12-[(R)-[(3S,4R,5R)-3,4-dihydroxy-5-(3-(4-methoxybenzyl)-2,4-dioxo-3,4-dihydro-1(2H)-pyrimidinyl)tetrahydro-2-furanyl](hydroxy)methyl]-5-[(1S)-1-hydroxyethyl]-3,6-dioxo-1-phenyl-2-oxa-4,7,11-triazatridecan-13-oate] | > 128 | > 128 | > 128 | > 128 | 128 (≈ 163 µM) | > 128 | > 128 | > 128 | 128 (≈ 163 µM) | > 128 | > 128 | > 128 | 128 (≈ 163 µM) | 64 (≈ 81.4 µM) | > 128 | 128 (≈ 163 µM) | 128 (≈ 163 µM) | 128 (≈ 163 µM) | 128 (≈ 163 µM) | 128 (≈ 163 µM) | – |
